Data published in patent US9474790B2, “Stable, protracted GLP-1/glucagon receptor co-agonists for medical use” (Novo Nordisk A/S, priority 2013, dated 2016).
Numbered stars: 1 amine (or outer) side, 2 acyl side, 3 side chain; on linkers, the order of the positions; unused ones are H or OH. Square brackets hold non-standard residues; d marks the D form. Side chains are listed from the residue outwards. Peptide text beside a SMILES is read from it. * marks the point of attachment. C18 diacid = O=C(O)CCCCCCCCCCCCCCCCC(=O)*; γGlu = O=C(O)[C@H](CCC(=O)[*:2])N[*:1]; Ac4c = NC1(C(=O)O)CCC1; AEEA = NCCOCCOCC(=O)O; Aib = CC(C)(N)C(=O)O

The compounds below were run against T1, human GLP-1 receptor (Homo sapiens, UniProt P43220) (assay: GLP-1 receptor binding, 125I-GLP-1 displacement SPA on isolated membranes). Settings: displacement of 125I-GLP-1 from membranes; read-out: IC50 GLP-1R.
T1 construct: expressed in transfected cells; host or cells: BHK cells (parent BHKTS13), clone FCW467-12A/KZ10-1, with CRE luciferase
In short: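 Test derivatives, serially diluted, competed with 125I-GLP-1(7-36)NH2 for the human GLP-1 receptor on BHK membranes, read by WGA-bead scintillation proximity after 2 h at 30°C, pH 7.4 HEPES/EGTA/MgCl2 buffer. Final serum albumin was either ≤0.001% or 2.0%; IC50 from non-linear fit.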

T1 sequence (P43220 24-463): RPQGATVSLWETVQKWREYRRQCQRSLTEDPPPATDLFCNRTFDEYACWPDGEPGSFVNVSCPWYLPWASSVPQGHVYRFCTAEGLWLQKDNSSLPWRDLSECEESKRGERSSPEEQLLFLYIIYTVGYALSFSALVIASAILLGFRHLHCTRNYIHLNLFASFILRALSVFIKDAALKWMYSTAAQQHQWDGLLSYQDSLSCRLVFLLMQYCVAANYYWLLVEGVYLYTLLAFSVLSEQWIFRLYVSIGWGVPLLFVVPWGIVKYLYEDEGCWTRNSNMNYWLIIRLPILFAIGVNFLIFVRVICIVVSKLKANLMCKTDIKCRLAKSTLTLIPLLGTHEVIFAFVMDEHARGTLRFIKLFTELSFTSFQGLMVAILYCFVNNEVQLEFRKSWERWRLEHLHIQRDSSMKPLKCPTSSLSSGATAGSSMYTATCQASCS

Row | SMILES | IC50 [nM]
1 | CC(C)C[C@H](NC(=O)[C@H](Cc1ccc(O)cc1)NC(=O)[C@H](CCCCN)NC(=O)[C@H](CO)NC(=O)[C@H](CC(C)C)NC(=O)[C@H](CC(=O)O)NC(=O)[C@H](CO)NC(=O)[C@@H](NC(=O)[C@H](Cc1ccccc1)NC(=O)[C@@H](NC(=O)CNC(=O)[C@H](Cc1c[nH]cn1)NC(=O)C(C)(C)NC(=O)[C@@H](N)Cc1c[nH]cn1)[C@@H](C)O)[C@@H](C)O)C(=O)N[C@@H](CCC(=O)O)C(=O)N[C@@H](CO)C(=O)N[C@@H](CCCCN)C(=O)N[C@@H](CCCNC(=N)N)C(=O)N[C@@H](C)C(=O)N[C@@H](CCCNC(=N)N)C(=O)N[C@@H](CCC(=O)O)C(=O)N[C@@H](Cc1ccccc1)C(=O)N[C@H](C(=O)N[C@@H](CCC(N)=O)C(=O)N[C@@H](Cc1c[nH]c2ccccc12)C(=O)N[C@@H](CC(C)C)C(=O)N[C@@H](CC(C)C)C(=O)N[C@@H](CCCCNC(=O)CC[C@H](NC(=O)CC[C@H](NC(=O)CC[C@H](NC(=O)CCCCCCCCCCCCCCCCC(=O)O)C(=O)O)C(=O)O)C(=O)O)C(=O)N[C@H](C(N)=O)[C@@H](C)O)C(C)C [Example 34, N^ε28-[(4S)-4-carboxy-4-[[(4S)-4-carboxy-4-[[(4S)-4-carboxy-4-(17-carboxyheptadecanoylamino)butanoyl]amino]butanoyl]amino]butanoyl]-[Aib2,His3,Leu10,Glu15,Lys17,Arg20,Glu21,Leu27,Lys28]-Glucagon amide] (H-H[Aib]HGTFTSDLSKYLESKRAREFVQWLLK([γGlu-γGlu-γGlu-C18 diacid])T-NH2; N-terminus assumed) | 0.2
2 | CC(C)C[C@H](NC(=O)[C@H](Cc1ccc(O)cc1)NC(=O)[C@H](CCCNC(=N)N)NC(=O)[C@H](CO)NC(=O)[C@H](CC(C)C)NC(=O)[C@H](CC(=O)O)NC(=O)[C@H](CO)NC(=O)[C@@H](NC(=O)[C@H](Cc1ccccc1)NC(=O)[C@@H](NC(=O)CNC(=O)[C@H](CCC(N)=O)NC(=O)C(C)(C)NC(=O)[C@@H](N)Cc1c[nH]cn1)[C@@H](C)O)[C@@H](C)O)C(=O)N[C@@H](CC(=O)O)C(=O)N[C@@H](C)C(=O)N[C@@H](CCCNC(=N)N)C(=O)N[C@@H](CCCNC(=N)N)C(=O)N[C@@H](C)C(=O)N[C@@H](CCCNC(=N)N)C(=O)N[C@@H](CC(=O)O)C(=O)N[C@@H](Cc1ccccc1)C(=O)N[C@H](C(=O)N[C@@H](CCC(N)=O)C(=O)N[C@@H](Cc1c[nH]c2ccccc12)C(=O)N[C@@H](CC(C)C)C(=O)N[C@@H](CC(C)C)C(=O)N[C@@H](CCCCNC(=O)CC[C@H](NC(=O)CC[C@H](NC(=O)CC[C@H](NC(=O)CCCCCCCCCCCCCCCCC(=O)O)C(=O)O)C(=O)O)C(=O)O)C(=O)N[C@H](C(N)=O)[C@@H](C)O)C(C)C [Example 62, N^ε28-[(4S)-4-carboxy-4-[[(4S)-4-carboxy-4-[[(4S)-4-carboxy-4-(17-carboxyheptadecanoylamino)butanoyl]amino]butanoyl]amino]butanoyl]-[Aib2,Leu10,Arg12,Ala16,Arg20,Leu27,Lys28]-Glucagon amide] (H-H[Aib]QGTFTSDLSRYLDARRARDFVQWLLK([γGlu-γGlu-γGlu-C18 diacid])T-NH2; N-terminus assumed) | 0.2
3 | CC(C)C[C@H](NC(=O)[C@H](Cc1ccc(O)cc1)NC(=O)[C@H](CCCCN)NC(=O)[C@H](CO)NC(=O)[C@H](CC(C)C)NC(=O)[C@H](CC(=O)O)NC(=O)[C@H](CO)NC(=O)[C@@H](NC(=O)[C@H](Cc1ccccc1)NC(=O)[C@@H](NC(=O)CNC(=O)[C@H](CCC(N)=O)NC(=O)C(C)(C)NC(=O)[C@@H](N)Cc1c[nH]cn1)[C@@H](C)O)[C@@H](C)O)C(=O)N[C@@H](CC(=O)O)C(=O)N[C@@H](C)C(=O)N[C@@H](CCCNC(=N)N)C(=O)N[C@@H](CCCNC(=N)N)C(=O)N[C@@H](C)C(=O)N[C@@H](CCCNC(=N)N)C(=O)N[C@@H](CCC(=O)O)C(=O)N[C@@H](Cc1ccccc1)C(=O)N[C@H](C(=O)N[C@@H](CCC(N)=O)C(=O)N[C@@H](Cc1c[nH]c2ccccc12)C(=O)N[C@@H](CC(C)C)C(=O)N[C@@H](CC(C)C)C(=O)N[C@@H](CCCCNC(=O)CC[C@H](NC(=O)CC[C@H](NC(=O)COCCOCCNC(=O)COCCOCCNC(=O)CC[C@H](NC(=O)CCCCCCCCCCCCCCCCC(=O)O)C(=O)O)C(=O)O)C(=O)O)C(=O)N[C@H](C(N)=O)[C@@H](C)O)C(C)C [Example 43, N^ε28-[(4S)-4-carboxy-4-[[(4S)-4-carboxy-4-[[2-[2-[2-[[2-[2-[2-[[(4S)-4-carboxy-4-(17-carboxyheptadecanoylamino)butanoyl]amino]ethoxy]ethoxy]acetyl]amino]ethoxy]ethoxy]acetyl]amino]butanoyl]amino]butanoyl]-[Aib2,Leu10,Ala16,Arg20,Glu21,Leu27,Lys28]-Glucagon amide] (H-H[Aib]QGTFTSDLSKYLDARRAREFVQWLLK([γGlu-γGlu-AEEA-AEEA-γGlu-C18 diacid])T-NH2; N-terminus assumed) | 0.3

Continued by falling IC50, values first:

Row | IC50 [nM] | SMILES
4 | 0.3 | CC(C)C[C@H](NC(=O)[C@H](Cc1ccc(O)cc1)NC(=O)[C@H](CCCCN)NC(=O)[C@H](CO)NC(=O)[C@H](CC(C)C)NC(=O)[C@H](CC(=O)O)NC(=O)[C@H](CO)NC(=O)[C@@H](NC(=O)[C@H](Cc1ccccc1)NC(=O)[C@@H](NC(=O)CNC(=O)[C@H](CCC(N)=O)NC(=O)C(C)(C)NC(=O)[C@@H](N)Cc1c[nH]cn1)[C@@H](C)O)[C@@H](C)O)C(=O)N[C@@H](CCC(=O)O)C(=O)N[C@@H](CO)C(=O)N[C@@H](CCCNC(=N)N)C(=O)N[C@@H](CCCNC(=N)N)C(=O)N[C@@H](C)C(=O)N[C@@H](CCCNC(=N)N)C(=O)N[C@@H](CCC(=O)O)C(=O)N[C@@H](Cc1ccccc1)C(=O)N[C@H](C(=O)N[C@@H](CCC(N)=O)C(=O)N[C@@H](Cc1c[nH]c2ccccc12)C(=O)N[C@@H](CC(C)C)C(=O)N[C@@H](CC(C)C)C(=O)N[C@@H](CCCCNC(=O)CC[C@H](NC(=O)CC[C@H](NC(=O)[C@H](CO)NC(=O)[C@H](CCC(=O)O)NC(=O)[C@H](CO)NC(=O)CC[C@H](NC(=O)CC[C@H](NC(=O)CCCCCCCCCCCCCCCCC(=O)O)C(=O)O)C(=O)O)C(=O)O)C(=O)O)C(=O)N[C@H](C(N)=O)[C@@H](C)O)C(C)C [Example 67, N^ε28-[(4S)-4-carboxy-4-[[(4S)-4-carboxy-4-[[(2S)-2-[[(2S)-4-carboxy-2-[[(2S)-2-[[(4S)-4-carboxy-4-[[(4S)-4-carboxy-4-(17-carboxyheptadecanoylamino)butanoyl]amino]butanoyl]amino]-3-hydroxypropanoyl]amino]butanoyl]amino]-3-hydroxypropanoyl]amino]butanoyl]amino]butanoyl]-[Aib2,Leu10,Glu15,Arg20,Glu21,Leu27,Lys28]-Glucagon amide] (H-H[Aib]QGTFTSDLSKYLESRRAREFVQWLLK([γGlu-γGlu-Ser-Glu-Ser-γGlu-γGlu-C18 diacid])T-NH2; N-terminus assumed)
5 | 0.3 | CC(C)C[C@H](NC(=O)[C@H](Cc1ccc(O)cc1)NC(=O)[C@H](CCCCN)NC(=O)[C@H](CO)NC(=O)[C@H](CC(C)C)NC(=O)[C@H](CC(=O)O)NC(=O)[C@H](CO)NC(=O)[C@@H](NC(=O)[C@H](Cc1ccccc1)NC(=O)[C@@H](NC(=O)CNC(=O)[C@H](CCC(N)=O)NC(=O)C1(NC(=O)[C@@H](N)Cc2c[nH]cn2)CCC1)[C@@H](C)O)[C@@H](C)O)C(=O)N[C@@H](CCC(=O)O)C(=O)N[C@@H](CO)C(=O)N[C@@H](CCCNC(=N)N)C(=O)N[C@@H](CCCNC(=N)N)C(=O)N[C@@H](C)C(=O)N[C@@H](CCCNC(=N)N)C(=O)N[C@@H](CCC(=O)O)C(=O)N[C@@H](Cc1ccccc1)C(=O)N[C@H](C(=O)N[C@@H](CCC(N)=O)C(=O)N[C@@H](Cc1c[nH]c2ccccc12)C(=O)N[C@@H](CC(C)C)C(=O)N[C@@H](CC(C)C)C(=O)N[C@@H](CCCCNC(=O)CC[C@H](NC(=O)CC[C@H](NC(=O)COCCOCCNC(=O)COCCOCCNC(=O)CC[C@H](NC(=O)CC[C@H](NC(=O)CCCCCCCCCCCCCCCCC(=O)O)C(=O)O)C(=O)O)C(=O)O)C(=O)O)C(=O)N[C@H](C(N)=O)[C@@H](C)O)C(C)C [Example 61, N^ε28-[(4S)-4-carboxy-4-[[(4S)-4-carboxy-4-[[2-[2-[2-[[2-[2-[2-[[(4S)-4-carboxy-4-[[(4S)-4-carboxy-4-(17-carboxyheptadecanoylamino)butanoyl]amino]butanoyl]amino]ethoxy]ethoxy]acetyl]amino]ethoxy]ethoxy]acetyl]amino]butanoyl]amino]butanoyl]-[Acb2,Leu10,Glu15,Arg20,Glu21,Leu27,Lys28]-Glucagon amide] (H-H[Ac4c]QGTFTSDLSKYLESRRAREFVQWLLK([γGlu-γGlu-AEEA-AEEA-γGlu-γGlu-C18 diacid])T-NH2; N-terminus assumed)
